Values joined by “and” are separate entries in the source; they are usually repeats but may differ in a detail not shown here. Identical values can stand only once. Toxic doses and inconclusive results are not listed. No stated cut-off is given here; in the data, active means T/C of 150% or more; inactive means T/C below 125%.
System: L1210 leukemia ip in BDF1 mice, survival T/C
Assay: NCI In Vivo Anticancer Drug Screen. Data for tumor model L1210 Leukemia (intraperitoneal) in B6D2F1 (BDF1) mice
Details: endpoint: mean survival time, higher = longer survival
Procedure, shortened: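 Each compound was tested against a transplantable tumor grown in mice. The endpoint was survival, with treated animals benchmarked against vehicle controls as a simple ratio.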

[1] = dose: 100.0 mg/kg/injection, schedule: Q04DX002 (ip), vehicle: saline with Tween-80
[2] = dose: 200.0 mg/kg/injection, schedule: Q04DX002 (ip), vehicle: saline with Tween-80
[3] = dose: 400.0 mg/kg/injection, schedule: Q04DX002 (ip), vehicle: saline with Tween-80
[4] = dose: 25.0 mg/kg/injection, schedule: Q01DX009 (ip), vehicle: saline
[5] = dose: 100.0 mg/kg/injection, schedule: Q01DX009 (ip), vehicle: saline with Tween-80
[6] = dose: 200.0 mg/kg/injection, schedule: Q01DX009 (ip), vehicle: saline with Tween-80
[7] = dose: 100.0 mg/kg/injection, schedule: Q04DX002 (ip), vehicle: saline
[8] = dose: 200.0 mg/kg/injection, schedule: Q04DX002 (ip), vehicle: saline
[9] = dose: 400.0 mg/kg/injection, schedule: Q04DX002 (ip), vehicle: saline
[10] = dose: 100.0 mg/kg/injection, schedule: Q01DX009 (ip), vehicle: Klucel (hydroxypropylcellulose) (HPC)
[11] = dose: 100.0 mg/kg/injection, schedule: Q04DX003 (ip), vehicle: Klucel (hydroxypropylcellulose) (HPC)
[12] = dose: 200.0 mg/kg/injection, schedule: Q01DX009 (ip), vehicle: Klucel (hydroxypropylcellulose) (HPC)
[13] = dose: 200.0 mg/kg/injection, schedule: Q04DX003 (ip), vehicle: Klucel (hydroxypropylcellulose) (HPC)
[14] = dose: 400.0 mg/kg/injection, schedule: Q01DX009 (ip), vehicle: Klucel (hydroxypropylcellulose) (HPC)
[15] = dose: 400.0 mg/kg/injection, schedule: Q04DX003 (ip), vehicle: Klucel (hydroxypropylcellulose) (HPC)
[16] = dose: 100.0 mg/kg/injection, schedule: Q01DX001 (ip), vehicle: saline
[17] = dose: 200.0 mg/kg/injection, schedule: Q01DX001 (ip), vehicle: saline
[18] = dose: 400.0 mg/kg/injection, schedule: Q01DX001 (ip), vehicle: saline
[19] = dose: 100.0 mg/kg/injection, schedule: Q01DX009 (ip), vehicle: saline
[20] = dose: 100.0 mg/kg/injection, schedule: Q01DX001 (ip), vehicle: carboxymethylcellulose (CMC)

Measured: T/C

CC1CCCCN1C(=O)Nc1cccc(C(F)(F)F)c1 (stereo not drawn)
inactive: dose: 100.0 mg/kg/injection, schedule: Q01DX001 (ip), vehicle: gum acacia 100 % of control and 103 % of control | dose: 100.0 mg/kg/injection, schedule: Q01DX009 (ip), vehicle: gum acacia 107 % of control | dose: 100.0 mg/kg/injection, schedule: Q04DX002 (ip), vehicle: gum acacia 93 % of control | dose: 100.0 mg/kg/injection, schedule: Q04DX003 (ip), vehicle: gum acacia 100 % of control and 101 % of control | dose: 200.0 mg/kg/injection, schedule: Q01DX001 (ip), vehicle: gum acacia 95 % of control and 105 % of control | dose: 200.0 mg/kg/injection, schedule: Q01DX009 (ip), vehicle: gum acacia 106 % of control | dose: 200.0 mg/kg/injection, schedule: Q04DX002 (ip), vehicle: gum acacia 96 % of control and 98 % of control | dose: 200.0 mg/kg/injection, schedule: Q04DX003 (ip), vehicle: gum acacia 95 % of control | dose: 400.0 mg/kg/injection, schedule: Q01DX001 (ip), vehicle: gum acacia 92 % of control and 102 % of control | dose: 400.0 mg/kg/injection, schedule: Q01DX009 (ip), vehicle: gum acacia 102 % of control | dose: 400.0 mg/kg/injection, schedule: Q04DX002 (ip), vehicle: gum acacia 93 % of control and 86 % of control | dose: 400.0 mg/kg/injection, schedule: Q04DX003 (ip), vehicle: gum acacia 98 % of control and 100 % of control

CCS(=O)(=O)N1CCC(C)CC1
inactive: [1] 96 % of control | [2] 101 % of control | [3] 103 % of control

C[N+]1=C2CCCCCC2=C(N)CC1
inactive: dose: 6.25 mg/kg/injection, schedule: Q01DX009 (ip), vehicle: saline 104 % of control | dose: 12.5 mg/kg/injection, schedule: Q01DX009 (ip), vehicle: saline 100 % of control | [4] 100 % of control

CCC1CN2CCc3cc(OC)c(OC)cc3C2CC1O (stereo not drawn)
inactive: [5] 97 % of control | [6] 110 % of control

O=[As](O)(O[As](=O)(O)c1ccccc1)c1ccccc1
inactive: dose: 5.0 mg/kg/injection, schedule: Q01DX001 (ip), vehicle: saline 103 % of control | dose: 10.0 mg/kg/injection, schedule: Q01DX001 (ip), vehicle: saline 103 % of control | dose: 20.0 mg/kg/injection, schedule: Q01DX001 (ip), vehicle: saline 103 % of control | dose: 40.0 mg/kg/injection, schedule: Q01DX001 (ip), vehicle: saline 101 % of control

CN(C)c1ccc(/C=N/O)cc1
inactive: [7] 103 % of control | [8] 95 % of control | [9] 95 % of control

CC(=O)OCC(OC(C)=O)C(OC(C)=O)C(OC(C)=O)C(/C=N/NC(N)=S)=N/NC(N)=S (stereo not drawn)
inactive: dose: 100.0 mg/kg/injection, schedule: Q01DX009 (ip), vehicle: other 95 % of control | dose: 100.0 mg/kg/injection, schedule: Q04DX003 (ip), vehicle: other 98 % of control | dose: 200.0 mg/kg/injection, schedule: Q01DX009 (ip), vehicle: other 91 % of control | dose: 200.0 mg/kg/injection, schedule: Q04DX003 (ip), vehicle: other 103 % of control | dose: 400.0 mg/kg/injection, schedule: Q04DX003 (ip), vehicle: other 103 % of control

CCOC(=O)c1ccnc2ccc(OC)cc12
inactive: [1] 91 % of control | [2] 100 % of control | [3] 104 % of control

COC(=O)c1ccccc1NN=Nc1ccccc1[N+](=O)[O-]
inactive: [10] 93 % of control | [11] 97 % of control and 86 % of control | [12] 88 % of control | [13] 98 % of control and 89 % of control | [14] 97 % of control | [15] 95 % of control and 97 % of control

CC(=O)OCCC/C(=C\c1ccc(F)cc1)[N+](=O)[O-]
inactive: dose: 100.0 mg/kg/injection, schedule: Q01DX001 (ip), vehicle: other 111 % of control

c1cncc(-c2ncnc3c2Cc2ccccc2-3)c1
inactive: [11] 97 % of control | [13] 111 % of control

c1ccc2c(c1)ccc1c3c(oc12)CCCC3
inactive: [16] 116 % of control | [17] 103 % of control | [18] 105 % of control

C[S+](C)CCCCCC[S+](C)C
inactive: dose: 100.0 mg/kg/injection, schedule: Q04DX003 (ip), vehicle: saline 102 % of control

Cc1ccc(S(=O)(=O)Cl)c(Cl)c1
inactive: dose: 50.0 mg/kg/injection, schedule: Q01DX009 (ip), vehicle: saline with Tween-80 92 % of control | [5] 94 % of control | [6] 91 % of control

Nc1nc(=S)nc(N)[nH]1
inactive: [4] 101 % of control | dose: 50.0 mg/kg/injection, schedule: Q01DX009 (ip), vehicle: saline 103 % of control | [19] 97 % of control

O=C(Nc1ccc(Cl)c(Cl)c1)OCC#CCOC(=O)Nc1ccc(Cl)c(Cl)c1
inactive: [19] 99 % of control | dose: 200.0 mg/kg/injection, schedule: Q01DX009 (ip), vehicle: saline 91 % of control | dose: 400.0 mg/kg/injection, schedule: Q01DX009 (ip), vehicle: saline 88 % of control

COc1ccc(Br)cc1CCC=O
inactive: [20] 100 % of control | dose: 200.0 mg/kg/injection, schedule: Q01DX001 (ip), vehicle: carboxymethylcellulose (CMC) 100 % of control | dose: 400.0 mg/kg/injection, schedule: Q01DX001 (ip), vehicle: carboxymethylcellulose (CMC) 100 % of control

Clc1ccc(C[P+](c2ccccc2)(c2ccccc2)c2ccccc2)c(Cl)c1
inactive: dose: 4.5 mg/kg/injection, schedule: Q01DX009 (ip), vehicle: saline 109 % of control | dose: 6.25 mg/kg/injection, schedule: Q01DX009 (ip), vehicle: saline with Tween-80 100 % of control | dose: 9.0 mg/kg/injection, schedule: Q01DX009 (ip), vehicle: saline 106 % of control | dose: 9.38 mg/kg/injection, schedule: Q01DX001 (ip), vehicle: water 100 % of control | dose: 12.5 mg/kg/injection, schedule: Q01DX009 (ip), vehicle: saline with Tween-80 94 % of control

Cc1cc(NS(=O)(=O)c2ccccc2)c2c(c1NS(=O)(=O)c1ccccc1)CC=CC2
inactive: [10] 103 % of control | [11] 103 % of control | [12] 100 % of control | [13] 95 % of control | [14] 111 % of control | [15] 94 % of control

Nc1ncnc2c1ccn2C1CCCC1
inactive: dose: 25.0 mg/kg/injection, schedule: Q01DX001 (ip), vehicle: carboxymethylcellulose (CMC) 100 % of control | dose: 50.0 mg/kg/injection, schedule: Q01DX001 (ip), vehicle: carboxymethylcellulose (CMC) 111 % of control | [20] 105 % of control

CC(=O)Nc1ccc(S(=O)(=O)NC(C(=O)O)C(=O)O)cc1
inactive: [16] 100 % of control | [17] 103 % of control | [18] 103 % of control

CC1=C(N)NN(O)C=C1
inactive: [7] 104 % of control | [8] 116 % of control | [9] 101 % of control

NN(C(=O)c1ccccc1)C1CCCCC1
inactive: dose: 100.0 mg/kg/injection, schedule: Q04DX003 (ip), vehicle: saline with Tween-80 104 % of control | dose: 200.0 mg/kg/injection, schedule: Q04DX003 (ip), vehicle: saline with Tween-80 96 % of control | dose: 400.0 mg/kg/injection, schedule: Q04DX003 (ip), vehicle: saline with Tween-80 96 % of control

Source: PubChem BioAssay AID248 (DTP/NCI, 2004)
